Measurements taken from patent publication US20230286979A1, “SALT OF DIHYDROPYRIDO[2,3-D]PYRIMIDINONE DERIVATIVE, PREPARATION METHOD THEREFOR, AND USE THEREOF” (NANJING CHIA TAI TIANQING PHARMACEUTICAL CO., LTD., priority 2020, published 2023).

Test system: AKT kinase
Assay: AKT kinase activity inhibition, summary statement of Test Example 1
Assay type: biochemical
Conditions: as demonstrated by Test Example 1
Method: g) The plate was sealed, the reaction solution was mixed until uniform and reacted at the room temperature for 1 h, and fluorescence signals were detected by using an ENVISION (Perkinelmer) instrument (320 nm stimulation, 665 nm, 615 nm emission). An inhibition rate in each well was calculated from all active wells and background signal wells, a mean value of repetitive wells was calculated, and the half inhibitory activity (IC50) of each compound to be tested was fitted by using the professional drawing analysis software PRISM 6.0.

CC(C)NC[C@@H](C(=O)N1CCN(c2ncnc3c2[C@H](C)CC(=O)N3)[C@H]2C[C@H]21)c1ccc(Cl)cc1 (single isomer, unassigned) [Isomer 2 of Example 1]
inhibiting effect on the AKT kinase activity: has an inhibiting effect
